According to article PMC6539903 (Molecules, 2019):

Tests used:
COX-1 = biological target: T1, COX-1 (Homo sapiens, UniProt P23219); experiment: COX-1 inhibition assay (COX-1 ELISA kit); assay type: biochemical; conditions: mean of four determinations; read-out: IC50 ± SD COX-1
T1 construct: purchased Cayman Chemical 701170
Method: (§1) 3-(4,5-Dimethylthiazol-2-yl)-2,5-diphenyltetrazolium (MTT) were purchased from Beyotime Institute of Biotechnology (Haimen, China). Annexcin V-FITC cell apoptosis assay kit (catalog No.BA11100) was purchased from BIO-BOX (Nanjing, China). Fibronectin (#F1056) and laminin (#L2020) were purchased from Sigma-Aldrich (St. Louis, MO, USA).
(§2) Then 1 M HCl was added to the reaction mixture to stop the reaction, and one-tenth of the volume of saturated stannous chloride (50 mg/mL) was added. The reaction mixture was incubated at room temperature for 5 min, and PGF2 and PGH2 were produced.

COX-2 = biological target: T2, COX-2 (Homo sapiens, UniProt P35354); experiment: COX-2 inhibition assay (COX-2 ELISA kit); assay type: biochemical; conditions: for Selectivity Index (SI) (COX-1 IC50/COX-2 IC50): in vitro COX-2 selectivity index; for IC50: mean of four determinations, read-out: IC50 ± SD COX-2
T2 construct: purchased Cayman Chemical 701180
T2 sequence (P35354 18-604): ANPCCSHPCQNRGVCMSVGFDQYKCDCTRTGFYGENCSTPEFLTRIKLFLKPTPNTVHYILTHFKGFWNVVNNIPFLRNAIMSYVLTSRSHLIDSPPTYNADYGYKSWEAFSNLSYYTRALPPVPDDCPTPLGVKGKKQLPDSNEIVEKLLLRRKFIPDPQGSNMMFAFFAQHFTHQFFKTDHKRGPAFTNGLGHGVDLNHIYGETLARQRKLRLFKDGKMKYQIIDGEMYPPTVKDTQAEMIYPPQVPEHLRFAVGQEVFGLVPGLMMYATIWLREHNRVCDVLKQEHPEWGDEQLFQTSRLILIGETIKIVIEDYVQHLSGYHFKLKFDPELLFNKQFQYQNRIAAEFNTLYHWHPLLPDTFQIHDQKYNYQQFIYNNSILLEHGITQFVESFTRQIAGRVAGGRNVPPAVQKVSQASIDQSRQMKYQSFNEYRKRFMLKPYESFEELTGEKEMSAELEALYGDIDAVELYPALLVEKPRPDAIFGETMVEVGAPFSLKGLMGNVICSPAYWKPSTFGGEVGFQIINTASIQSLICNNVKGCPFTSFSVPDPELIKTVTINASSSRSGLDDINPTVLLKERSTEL
Method: as §1, §2

[1] = MTT cytotoxicity assay, non-cancer colon cells; assay type: cell-based; conditions: human, NCM460 colonic epithelial cells (non-cancer cell line), n = 3, non-cancer cell line, read-out: CC50 ± SD NUM460
Method: Besides, the MTT assay was performed on a non-cancer line NCM460 to assess the cytotoxicity of the test compound to normal colon cells.
(§3) MCF-7 (human breast cell line), HeLa (human cervical cell line), A549 (human lung cell line), HepG2 (human liver cell line), SW620 (human colorectal cell line) and a non-cancer cell line, NCM460 (Human colonic epithelial cells) were preserved at the State Key Laboratory of Pharmaceutical Biotechnology, Nanjing University (Nanjing, China).
(§4) The antiproliferative activity of the synthetic compounds against the SW620, MCF-7, HeLa, A549, HepG2, and NUM460 cell lines was evaluated by a colorimetric assay based on a modified standard (MTT). […] Thereafter, MTT (5 mg/mL in PBS) was added to each well and incubated for 4 h. 150 μL of DMSO was added to each well and shaken with a shaker. The absorbance (OD 570 nm) was read at 630 nm on an ELISA reader (ELx800, BioTek, montpelier, VT, USA). IC50 values for the compounds were calculated by comparison to DMSO treated control wells. Three replicate wells were used for each drug concentration. Each assay was performed three times.

HeLa = experiment: MTT antiproliferation assay, HeLa; assay type: cell-based; conditions: Homo sapiens, 48 h, n = 3, read-out: IC50 ± SD HeLa
Method: as §3, §4

SW620 cells = experiment: MTT antiproliferation assay, SW620; assay type: cell-based; conditions: Homo sapiens, SW-620, 48 h, n = 3, read-out: IC50 ± SD SW620
Method: as §3, §4

MCF-7 = experiment: MTT antiproliferation assay, MCF-7; assay type: cell-based; conditions: Homo sapiens, MCF7, 48 h, n = 3, read-out: IC50 ± SD MCF-7
Method: as §3, §4

HepG2 = experiment: MTT antiproliferation assay, HepG2; assay type: cell-based; conditions: Homo sapiens, 48 h, n = 3, read-out: IC50 ± SD HepG2
Method: as §3, §4

A549 = experiment: MTT antiproliferation assay, A549; assay type: cell-based; conditions: Homo sapiens, 48 h, n = 3, read-out: IC50 ± SD A549
Method: as §3, §4

T1 sequence (P23219 24-599): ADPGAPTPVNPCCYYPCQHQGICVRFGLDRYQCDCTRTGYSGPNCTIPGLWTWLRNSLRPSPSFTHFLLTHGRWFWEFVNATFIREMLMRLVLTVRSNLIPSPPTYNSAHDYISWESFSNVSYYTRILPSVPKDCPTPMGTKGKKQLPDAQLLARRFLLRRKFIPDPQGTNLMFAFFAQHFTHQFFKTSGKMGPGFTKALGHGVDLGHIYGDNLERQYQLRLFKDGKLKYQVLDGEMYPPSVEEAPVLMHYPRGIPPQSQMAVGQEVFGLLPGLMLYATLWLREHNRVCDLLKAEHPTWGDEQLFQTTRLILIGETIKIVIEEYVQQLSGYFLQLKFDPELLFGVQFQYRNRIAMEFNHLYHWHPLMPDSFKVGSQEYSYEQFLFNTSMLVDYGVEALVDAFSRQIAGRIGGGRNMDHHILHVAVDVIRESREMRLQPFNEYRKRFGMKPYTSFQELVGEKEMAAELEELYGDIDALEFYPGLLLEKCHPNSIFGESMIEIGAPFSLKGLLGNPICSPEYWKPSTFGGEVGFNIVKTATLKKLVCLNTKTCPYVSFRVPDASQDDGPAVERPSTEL

Compound	IC50 (COX-1)	Selectivity Index (SI) (COX-1 IC50/COX-2 IC50) (COX-2)	IC50 (COX-2)	IC50 (HeLa)	IC50 (SW620 cells)	melting point	IC50 (MCF-7)	IC50 (HepG2)	IC50 (A549)	CC50 at 48 h [1]
COc1ccc(C2=NN(c3ccc(S(N)(=O)=O)cc3)C(c3ccc4c(c3)OCCO4)C2)cc1 (stereo not drawn) [Compound 4m, 4-(5-(2,3-Dihydrobenzo[b][1,4]dioxin-6-yl)-3-(4-methoxyphenyl)-4,5-dihydro-1H-pyrazol-1-yl)benzenesulfonamide]	> 60 µM	>39.47	1.52 ± 0.09 µM	7.22 ± 0.19 µM	3.88 ± 0.37 µM	207 to 208 °C	6.52 ± 0.33 µM	9.44 ± 0.77 µM	4.54 ± 0.29 µM	110 ± 7.42 µM
COc1cccc(C2=NN(c3ccc(S(N)(=O)=O)cc3)C(c3ccc4c(c3)OCCO4)C2)c1 (stereo not drawn) [Compound 4u, 4-(5-(2,3-Dihydrobenzo[b][1,4]dioxin-6-yl)-3-(3-methoxyphenyl)-4,5-dihydro-1H-pyrazol-1-yl)benzenesulfonamide]	> 60 µM	>22.73	2.64 ± 0.17 µM	12.2 ± 0.85 µM	6.63 ± 0.42 µM	146 to 147 °C	10.6 ± 0.67 µM	15.3 ± 1.09 µM	7.81 ± 0.37 µM	178 ± 10.7 µM
CCOc1ccc(C2=NN(c3ccc(S(N)(=O)=O)cc3)C(c3ccc4c(c3)OCCO4)C2)cc1 (stereo not drawn) [Compound 4n, 4-(5-(2,3-Dihydrobenzo[b][1,4]dioxin-6-yl)-3-(4-ethoxyphenyl)-4,5-dihydro-1H-pyrazol-1-yl)benzenesulfonamide]	> 60 µM	>24.59	2.44 ± 0.19 µM	11.2 ± 0.86 µM	6.12 ± 0.49 µM	193 to 194 °C	9.88 ± 0.86 µM	13.5 ± 0.59 µM	6.81 ± 0.55 µM	157 ± 9.98 µM
NS(=O)(=O)c1ccc(N2N=C(c3cc(F)cc(F)c3)CC2c2ccc3c(c2)OCCO3)cc1 (stereo not drawn) [Compound 4w, 4-(3-(3,5-Difluorophenyl)-5-(2,3-dihydrobenzo[b][1,4]dioxin-6-yl)-4,5-dihydro-1H-pyrazol-1-yl)benzenesulfonamide]	55.02 ± 0.36 µM	36.44	1.51 ± 0.09 µM	7.04 ± 0.47 µM	3.78 ± 0.22 µM	182 to 183 °C	6.37 ± 0.39 µM	9.08 ± 0.71 µM	4.34 ± 0.28 µM	105 ± 8.87 µM
NS(=O)(=O)c1ccc(N2N=C(c3cccc(F)c3)CC2c2ccc3c(c2)OCCO3)cc1 (stereo not drawn) [Compound 4v, 4-(5-(2,3-Dihydrobenzo[b][1,4]dioxin-6-yl)-3-(3-fluorophenyl)-4,5-dihydro-1H-pyrazol-1-yl)benzenesulfonamide]	> 60 µM	>31.09	1.93 ± 0.08 µM	8.95 ± 0.39 µM	4.84 ± 0.27 µM	200 to 201 °C	7.96 ± 0.55 µM	12.9 ± 0.99 µM	6.47 ± 0.29 µM	150 ± 6.94 µM
NS(=O)(=O)c1ccc(N2N=C(c3ccccc3)CC2c2ccc3c(c2)OCCO3)cc1 (stereo not drawn) [Compound 4k, 4-(5-(2,3-Dihydrobenzo[b][1,4]dioxin-6-yl)-3-phenyl-4,5-dihydro-1H-pyrazol-1-yl)benzenesulfonamide]	> 60 µM	>32.97	1.82 ± 0.16 µM	8.44 ± 0.48 µM	4.56 ± 0.14 µM	156 to 157 °C	7.54 ± 0.42 µM	11.9 ± 0.91 µM	5.92 ± 0.31 µM	138 ± 11 µM
NS(=O)(=O)c1ccc(N2N=C(c3cccc(Cl)c3Cl)CC2c2ccc3c(c2)OCCO3)cc1 (stereo not drawn) [Compound 4x, 4-(3-(2,3-Dichlorophenyl)-5-(2,3-dihydrobenzo[b][1,4]dioxin-6-yl)-4,5-dihydro-1H-pyrazol-1-yl)benzenesulfonamide]						171 to 173 °C				
NS(=O)(=O)c1ccc(N2N=C(c3ccc(Cl)cc3)CC2c2ccc3c(c2)OCCO3)cc1 (stereo not drawn) [Compound 4p, 4-(3-(4-Chlorophenyl)-5-(2,3-dihydrobenzo[b][1,4]dioxin-6-yl)-4,5-dihydro-1H-pyrazol-1-yl)benzenesulfonamide]	37.32 ± 0.18 µM	26.46	1.41 ± 0.07 µM	6.58 ± 0.49 µM	3.53 ± 0.16 µM	146 to 148 °C	5.99 ± 0.38 µM	8.16 ± 0.63 µM	3.83 ± 0.26 µM	94.7 ± 3.65 µM

The next lines start with results.

IC50 (COX-1)	Selectivity Index (SI) (COX-1 IC50/COX-2 IC50) (COX-2)	IC50 (COX-2)	IC50 (HeLa)	IC50 (SW620 cells)	melting point	IC50 (MCF-7)	IC50 (HepG2)	IC50 (A549)	Compound	CC50 at 48 h [1]
52.91 ± 0.39 µM	41.33	1.28 ± 0.07 µM	6.07 ± 0.41 µM	3.24 ± 0.18 µM	192 to 193 °C	5.56 ± 0.38 µM	7.14 ± 0.66 µM	3.26 ± 0.29 µM	NS(=O)(=O)c1ccc(N2N=C(c3cccc(F)c3)CC2c2ccc3c(c2)OCO3)cc1 (stereo not drawn) [Compound 4h, 4-(5-(Benzo[d][1,3]dioxol-5-yl)-3-(3-fluorophenyl)-4,5-dihydro-1H-pyrazol-1-yl)benzenesulfonamide]	82.8 ± 7.59 µM
> 60 µM	>33.33	1.8 ± 0.05 µM	8.41 ± 0.17 µM	4.54 ± 0.31 µM	166 to 168 °C	7.51 ± 0.47 µM	11.8 ± 0.59 µM	5.86 ± 0.47 µM	Cc1ccc(C2=NN(c3ccc(S(N)(=O)=O)cc3)C(c3ccc4c(c3)OCCO4)C2)cc1C (stereo not drawn) [Compound 4s, 4-(5-(2,3-Dihydrobenzo[b][1,4]dioxin-6-yl)-3-(3,4-dimethylphenyl)-4,5-dihydro-1H-pyrazol-1-yl)benzenesulfonamide]	137 ± 3.98 µM
58.14 ± 0.47 µM	33.61	1.73 ± 0.11 µM	8.05 ± 0.77 µM	4.34 ± 0.33 µM	179 to 180 °C	7.21 ± 0.62 µM	11.2 ± 1.03 µM	5.49 ± 0.44 µM	Cc1ccc(C2=NN(c3ccc(S(N)(=O)=O)cc3)C(c3ccc4c(c3)OCO4)C2)cc1C (stereo not drawn) [Compound 4f, 4-(5-(Benzo[d][1,3]dioxol-5-yl)-3-(3,4-dimethylphenyl)-4,5-dihydro-1H-pyrazol-1-yl)benzenesulfonamide]	129 ± 8.96 µM
43.87 ± 0.37 µM	46.67		4.46 ± 0.36 µM	2.35 ± 0.11 µM	153 to 154 °C	4.22 ± 0.16 µM	5.92 ± 0.39 µM	2.58 ± 0.18 µM	Cc1ccc(C2=NN(c3ccc(S(N)(=O)=O)cc3)C(c3ccc4c(c3)OCCO4)C2)cc1 (stereo not drawn) [Compound 4l, 4-(5-(2,3-Dihydrobenzo[b][1,4]dioxin-6-yl)-3-(p-tolyl)-4,5-dihydro-1H-pyrazol-1-yl)benzenesulfonamide]	68.7 ± 5.28 µM
> 60 µM	>18.87	3.18 ± 0.26 µM	14.6 ± 0.96 µM	7.99 ± 0.56 µM	219 to 221 °C	12.7 ± 0.89 µM	18.2 ± 1.15 µM	9.42 ± 0.74 µM	COc1cccc(C2=NN(c3ccc(S(N)(=O)=O)cc3)C(c3ccc4c(c3)OCO4)C2)c1 (stereo not drawn) [Compound 4g, 4-(5-(Benzo[d][1,3]dioxol-5-yl)-3-(3-methoxyphenyl)-4,5-dihydro-1H-pyrazol-1-yl)benzenesulfonamide]	211 ± 18.2 µM
